Earlier results as cited in US9968537B2, “Anti-dandruff compositions and hair care formulations containing zinc pyrithione and quaternary ammonium salt” (JUBILANT LIFE SCIENCES LIMITED, priority 2013, dated 2018).

Details: background statement

For `[O-][n+]1ccccc1S.[Zn]` [ZPTO, zinc pyridine-2-thiol-N-oxide], the solubility in water is listed as 6-12 ppm.
